Test results: PMC12311259, “Antifibrotic effects of specific targeting of the 5‐hydroxytryptamine 2B receptor (5‐HT2BR) in murine models and ex vivo models of scleroderma skin” (Arthritis & Rheumatology (Hoboken, N.j.), 2025)

Columns and labels:
[1] = Pharmacokinetic profile (no method given)
Serotonin 5-HT6 (hu) = target: T1, Serotonin 5-HT6 (hu) (Homo sapiens, UniProt P50406); assay: Functionality assay, Adenylyl Cyclase, Eurofins Panlabs 318000; format: cell-based
T1 construct: 318000 (adenylyl cyclase)
Source text: (§1) Effects were considered significant if AM1476's mean value was three or more SDs above the vehicle control mean in the agonist assay or three or more SDs below the positive control agonist (5‐nM α‐methylserotonin) mean in the antagonist assay. AM1476 was screened for selectivity against approximately 200 targets using a Eurofins Panlabs Spectrum screen panel including enzymatic and receptor binding assays.

[2] = target: T2, Serotonin (5-Hydroxytryptamine) 5-HT7 (hu) (Homo sapiens, UniProt P34969); assay: Receptor binding, Eurofins Panlabs 272320
T2 construct: Eurofins Panlabs 272320
Source text: as §1

[3] = target: T3, Serotonin (5-Hydroxytryptamine) 5-HT3 (hu) (Homo sapiens, UniProt P46098); assay: Receptor binding, Eurofins Panlabs 271910
T3 construct: Eurofins Panlabs 271910
Source text: as §1

healthy individuals = assay: Phase 1 clinical trial, safety, tolerability and pharmacokinetic profile (NCT04691115); format: in vivo, human; conditions: for Any adverse event / Depressed level of consciousness / Dizziness / Gastrointestinal disorders / Headache / Nausea / Nervous system disorders / Presyncope / Serious adverse event / Syncope: fasted, N = 6
Source text: These findings prompted us to perform a phase 1 clinical trial investigating safety, tolerability, and the pharmacokinetic profile of AM1476 in healthy individuals (ClinicalTrials.gov identifier NCT04691115). […] An excerpt of the summary of adverse events is found in Supplementary Table S5. […] The anticipated clinical efficacy exposure was well covered by investigated doses.

human 5-HT2AR = target: T4, human 5-HT2AR (Homo sapiens, UniProt P28223); assay: Functionality assay, HTRF quantification of IP1 accumulation in CHO-K1 cells; format: cell-based; conditions: inhibition of 5-HT (5 nM) induced IP1 response, read-out: IC50, antagonistic activity, human 5-HT2A
T4 construct: 355250 (IP1); host or cells: CHO-K1
Experimental: The binding profile of AM1476 was evaluated for binding to human 5‐HT2AR, 5‐HT2BR, and 5‐HT2CR in radioligand binding assays using Chinese hamster ovary (CHO‐K1) cells overexpressing human receptors (in vitro assays 271650, 271700, and 271800; Eurofins Panlabs Discovery). AM1476 was evaluated at 0.1, 1, 10, 100, 1,000, and 10,000 nM (5‐HT2BR) or at 1, 10, 100, 1,000, and 10,000 nM (5‐HT2AR and 5‐HT2CR). Human 5‐HT2AR and 5‐HT2BR functionality was measured with homogeneous time‐resolved fluorescence quantification of IP1 accumulation in CHO‐K1 cells (in vitro assays 355250 and 355260). Compounds creating a ≥50% inhibition of 5‐HT (5 nM) induced fluorescence response specified receptor antagonist activity. 5‐HT2CR functionality was assessed with [35S] GTPγS for quantification of bound GTPγS. Compounds creating a ≥50% inhibition of 5‐HT (100 nM) induced [35S] GTPγS binding response specified receptor antagonist activity (in vitro assay 355200). AM1476 was evaluated at 0.1, 0.3, 1, 3, 10, 30, and 300 nM (5‐HT2BR) or 1, 10, 100, 1,000, and 10,000 nM (5‐HT2AR and 5‐HT2CR). […] Mouse 5‐HT2BR functionality was measured in a calcium influx assay (Charles River) in CHO‐KI cells expressing the mouse 5‐HT2BR using a calcium sensitive dye and a fluorescence imaging plate reader (FLIPRTETRA) instrument. AM1476 was evaluated at 0.3, 1, 3, 10, 30, 100, 300, and 1,000 nM.

T1 sequence (P50406 whole entry): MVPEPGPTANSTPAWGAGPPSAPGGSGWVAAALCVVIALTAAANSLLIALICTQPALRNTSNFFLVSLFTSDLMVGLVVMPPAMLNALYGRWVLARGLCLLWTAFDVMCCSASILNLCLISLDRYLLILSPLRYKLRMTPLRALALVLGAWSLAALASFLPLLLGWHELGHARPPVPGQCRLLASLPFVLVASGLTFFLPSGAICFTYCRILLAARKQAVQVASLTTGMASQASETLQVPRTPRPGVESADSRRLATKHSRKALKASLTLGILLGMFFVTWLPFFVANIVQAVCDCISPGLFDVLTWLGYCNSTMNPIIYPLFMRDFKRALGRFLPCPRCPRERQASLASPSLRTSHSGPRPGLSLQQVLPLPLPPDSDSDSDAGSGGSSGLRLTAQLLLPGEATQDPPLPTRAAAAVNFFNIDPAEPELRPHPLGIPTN
T2 sequence (P34969 whole entry): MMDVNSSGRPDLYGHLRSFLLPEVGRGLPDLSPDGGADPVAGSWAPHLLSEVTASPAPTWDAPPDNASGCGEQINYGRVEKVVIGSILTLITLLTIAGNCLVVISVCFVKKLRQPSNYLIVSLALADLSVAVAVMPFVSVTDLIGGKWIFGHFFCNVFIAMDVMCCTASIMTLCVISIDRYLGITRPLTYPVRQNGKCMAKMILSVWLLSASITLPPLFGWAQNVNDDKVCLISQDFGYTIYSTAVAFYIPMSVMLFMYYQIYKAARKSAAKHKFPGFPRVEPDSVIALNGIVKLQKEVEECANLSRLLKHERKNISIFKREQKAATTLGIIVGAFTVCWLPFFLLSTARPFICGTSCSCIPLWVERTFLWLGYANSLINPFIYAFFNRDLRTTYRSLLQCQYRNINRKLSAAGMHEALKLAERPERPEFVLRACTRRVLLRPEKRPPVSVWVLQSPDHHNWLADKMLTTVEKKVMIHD
T3 sequence (P46098 24-478): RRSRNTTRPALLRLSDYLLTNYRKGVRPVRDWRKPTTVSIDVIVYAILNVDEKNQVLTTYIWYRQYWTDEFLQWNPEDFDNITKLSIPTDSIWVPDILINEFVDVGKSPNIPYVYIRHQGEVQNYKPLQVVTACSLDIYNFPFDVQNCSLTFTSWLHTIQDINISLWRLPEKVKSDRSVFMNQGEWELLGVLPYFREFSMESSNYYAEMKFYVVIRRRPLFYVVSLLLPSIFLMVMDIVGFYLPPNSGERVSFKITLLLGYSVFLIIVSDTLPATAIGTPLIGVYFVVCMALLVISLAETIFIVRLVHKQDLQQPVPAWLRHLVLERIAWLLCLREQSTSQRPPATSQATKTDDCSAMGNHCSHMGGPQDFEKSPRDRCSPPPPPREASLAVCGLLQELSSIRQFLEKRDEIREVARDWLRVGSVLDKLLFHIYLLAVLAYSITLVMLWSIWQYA
T4 sequence (P28223 whole entry): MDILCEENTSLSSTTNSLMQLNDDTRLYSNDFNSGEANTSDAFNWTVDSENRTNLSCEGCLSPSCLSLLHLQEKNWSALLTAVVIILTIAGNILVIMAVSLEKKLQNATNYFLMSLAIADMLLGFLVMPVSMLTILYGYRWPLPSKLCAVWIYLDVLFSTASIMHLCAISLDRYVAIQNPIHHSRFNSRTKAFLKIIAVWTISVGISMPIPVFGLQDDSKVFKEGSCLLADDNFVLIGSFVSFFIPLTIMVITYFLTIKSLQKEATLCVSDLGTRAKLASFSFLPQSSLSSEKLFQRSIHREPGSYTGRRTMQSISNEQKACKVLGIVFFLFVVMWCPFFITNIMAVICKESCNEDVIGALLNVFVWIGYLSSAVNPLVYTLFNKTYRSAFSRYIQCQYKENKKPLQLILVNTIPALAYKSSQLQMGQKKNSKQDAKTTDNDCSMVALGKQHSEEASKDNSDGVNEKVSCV

C[C@@H]1CN(C(=N)N)N=C1c1ccc(F)cc1O [AM1476]
distribution to the brain [1]: no preference to distribute to the brain | oral bioavailability [1]: orally bioavailable | IC50 (Serotonin 5-HT6 (hu)): 4.55 µM | agonistic activity, Serotonin 5-HT6 (Serotonin 5-HT6 (hu); at 30 µM): No significant agonistic activity at 30 µM | % Inhibition at 1 µM, 5-HT7 (hu) ([2]; 1 µM (value in brackets)): 39% | % Inhibition at 10 µM, 5-HT7 (hu) ([2]; 10 µM): 91% | % Inhibition at 10 µM, 5-HT3 (hu) [3]: 14% | Any adverse event (healthy individuals; 375 mg BID): 2 (33.3%) no. of subjects (%) | Depressed level of consciousness (healthy individuals; 375 mg BID): 0 no. of subjects (%) | Dizziness (healthy individuals; 375 mg BID): 1 (16.7%) no. of subjects (%) | Gastrointestinal disorders (healthy individuals; 375 mg BID): 2 (33.3%) no. of subjects (%) | Headache (healthy individuals; 375 mg BID): 2 (33.3%) no. of subjects (%) | Nausea (healthy individuals; 375 mg BID): 2 (33.3%) no. of subjects (%) | Nervous system disorders (healthy individuals; 375 mg BID): 2 (33.3%) no. of subjects (%) | Presyncope (healthy individuals; 375 mg BID): 0 no. of subjects (%) | Serious adverse event (healthy individuals; 375 mg BID): 0 no. of subjects (%) | Syncope (healthy individuals; 375 mg BID): 0 no. of subjects (%) | Any adverse event (healthy individuals; 500 mg BID): 4 (66.7%) no. of subjects (%) | Depressed level of consciousness (healthy individuals; 500 mg BID): 0 no. of subjects (%) | Dizziness (healthy individuals; 500 mg BID): 1 (16.7%) no. of subjects (%) | Gastrointestinal disorders (healthy individuals; 500 mg BID): 1 (16.7%) no. of subjects (%) | Headache (healthy individuals; 500 mg BID): 1 (16.7%) no. of subjects (%) | Nausea (healthy individuals; 500 mg BID): 1 (16.7%) no. of subjects (%) | Nervous system disorders (healthy individuals; 500 mg BID): 2 (33.3%) no. of subjects (%) | Presyncope (healthy individuals; 500 mg BID): 0 no. of subjects (%) | Serious adverse event (healthy individuals; 500 mg BID): 0 no. of subjects (%) | Syncope (healthy individuals; 500 mg BID): 0 no. of subjects (%) | serious adverse events (healthy individuals; healthy individuals): no serious adverse events were reported | severity of adverse events (healthy individuals; healthy individuals): most of the adverse events were mild in severity | tolerability (healthy individuals; healthy individuals): well tolerated | time to steady state (healthy individuals; multiple-dose period): by day two | absorption (healthy individuals; single and multiple oral administration, fasted state): rapidly absorbed | IC50 (human 5-HT2AR): > 10 µM
